US10253071B2, “Selectin inhibitors, composition, and uses related thereto” (Beth Israel Deaconess Medical Center, Inc., priority 2014, dated 2019)
Square brackets hold non-standard residues; d marks the D form. Peptide text beside a SMILES is read from it. * marks the point of attachment. X1 = CC(=O)N[C@@H]1[C@@H](O[C@@H]2O[C@H](CO)[C@H](O)[C@H](O)[C@H]2O)[C@@H](O)[C@@H](CO[C@@H]2O[C@H](CO)[C@@H](O[C@@H]3O[C@H](CO)[C@H](O)[C@H](O[C@]4(C(=O)O)C[C@H](O)[C@@H](NC(C)=O)[C@H]([C@H](O)[C@H](O)CO)O4)[C@H]3O)[C@H](O[C@@H]3O[C@@H](C)[C@@H](O)[C@@H](O)[C@@H]3O)[C@H]2NC(C)=O)O[C@@H]1*; Phe(4-CH2SO3H) = N[C@@H](Cc1ccc(CS(=O)(=O)O)cc1)C(=O)O; Mca = COc1ccc2c(CC(=O)*)cc(=O)oc2c1

How the values were obtained:
human P-selectin = target: T1, human P-selectin (Homo sapiens, UniProt P16109); assay: Biacore binding assay, human P-selectin
T1 sequence (P16109 42-830): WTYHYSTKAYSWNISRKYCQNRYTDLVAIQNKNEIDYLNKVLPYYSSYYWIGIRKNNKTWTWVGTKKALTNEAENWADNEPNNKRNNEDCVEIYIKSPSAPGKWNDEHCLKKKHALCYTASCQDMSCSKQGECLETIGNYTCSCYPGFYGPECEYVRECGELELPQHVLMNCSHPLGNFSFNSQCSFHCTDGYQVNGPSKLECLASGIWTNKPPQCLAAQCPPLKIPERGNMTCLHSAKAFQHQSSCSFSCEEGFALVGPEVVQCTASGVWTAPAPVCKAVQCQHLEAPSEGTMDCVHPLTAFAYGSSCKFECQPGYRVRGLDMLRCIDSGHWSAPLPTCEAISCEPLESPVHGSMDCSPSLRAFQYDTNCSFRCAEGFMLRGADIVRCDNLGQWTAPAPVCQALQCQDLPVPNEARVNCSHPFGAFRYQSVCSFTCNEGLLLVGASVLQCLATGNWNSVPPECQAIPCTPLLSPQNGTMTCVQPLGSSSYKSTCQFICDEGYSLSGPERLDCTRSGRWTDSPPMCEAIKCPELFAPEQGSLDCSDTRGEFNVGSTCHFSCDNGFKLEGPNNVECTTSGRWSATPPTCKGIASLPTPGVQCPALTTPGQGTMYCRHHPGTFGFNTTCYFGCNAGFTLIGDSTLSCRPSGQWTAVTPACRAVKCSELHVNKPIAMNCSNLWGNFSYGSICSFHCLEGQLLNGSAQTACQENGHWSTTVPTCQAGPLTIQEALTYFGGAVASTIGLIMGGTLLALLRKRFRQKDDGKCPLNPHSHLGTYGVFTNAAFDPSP
Protocol: Bound peptides were detected using Alexa-488 labeled anti-human IgG antibody (5 μg/mL). Three lectins RCA-1, AAL, and PNA were used to confirm the sequence of enzymatic steps. Monoclonal antibodies CHO131, PSG2 antibody and PL-1 were used to confirm the presence of SLex, tyrosine sulfates, and the peptide sequence, respectively. Biacore binding analysis to human P-selectin with observed rate constants for (D) GSnP-6, kon 3.1×10^5 M^−1s^−1, koff 6.9×10^3 M^−1s^−; GSn2P-6, kon6.4×10^5 M^−1s^−1, koff 6.8×10^3 M^−1s. Biacore binding analysis to mouse P-selectin with observed rate constants for (E) GsnP-6, kon 4.9×10^4 M^−1s^−1, koff 8.0×10^3 M^−1s^−; GSn2P-6 kon 5.3×10^4 M^−1s^−1, koff 9.0×10^3 M^−1s. (F) Temperature- and pH-dependent stability studies of GSnP-6.
(§1) Dissociation constants (Kd) were determined using a Biacore binding assay after initial capture of biotinylated GS(n)P-6 onto streptavidin-coated sensor chips followed by flow through of P-, L- or E-sel-Ig (2.5 to 60 μg/mL). […] The Kd of GSnP-6 to murine P-selectin was ˜9-fold lower than to human P-selectin.

E-selectin (E-sel-Ig) = target: T2, E-selectin (E-sel-Ig) (Homo sapiens, UniProt P16581); assay: Biacore binding assay, E-selectin; settings: compared with P-selectin
T2 sequence (P16581 22-610): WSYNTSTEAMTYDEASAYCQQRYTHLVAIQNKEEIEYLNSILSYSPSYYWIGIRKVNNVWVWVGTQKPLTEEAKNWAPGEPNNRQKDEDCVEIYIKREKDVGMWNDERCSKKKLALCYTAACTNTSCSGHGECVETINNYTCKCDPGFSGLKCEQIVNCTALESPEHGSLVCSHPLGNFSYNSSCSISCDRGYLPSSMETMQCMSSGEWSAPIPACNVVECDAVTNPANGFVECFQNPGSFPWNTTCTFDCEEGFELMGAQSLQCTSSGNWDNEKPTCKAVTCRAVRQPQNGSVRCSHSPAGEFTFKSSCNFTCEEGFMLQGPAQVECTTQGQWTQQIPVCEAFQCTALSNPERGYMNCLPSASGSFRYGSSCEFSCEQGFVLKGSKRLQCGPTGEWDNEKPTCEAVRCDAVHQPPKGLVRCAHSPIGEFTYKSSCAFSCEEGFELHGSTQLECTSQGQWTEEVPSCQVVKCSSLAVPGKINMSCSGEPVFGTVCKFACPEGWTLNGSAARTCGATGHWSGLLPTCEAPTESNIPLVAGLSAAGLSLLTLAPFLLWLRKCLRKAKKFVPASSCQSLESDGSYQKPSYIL
Protocol: as §1

[1] = target: T3, Recombinant mouse P-selectin Fc chimera (Mus musculus, UniProt Q01102); assay: Flow cytometry, inhibition of mouse P-selectin Fc chimera binding to murine neutrophils; assay type: cell-based; settings: murine PMN; chimera 2 μg/mL; read-out: IC50, P-selectin dependent interactions, murine PMN
T3 sequence (Q01102 42-768): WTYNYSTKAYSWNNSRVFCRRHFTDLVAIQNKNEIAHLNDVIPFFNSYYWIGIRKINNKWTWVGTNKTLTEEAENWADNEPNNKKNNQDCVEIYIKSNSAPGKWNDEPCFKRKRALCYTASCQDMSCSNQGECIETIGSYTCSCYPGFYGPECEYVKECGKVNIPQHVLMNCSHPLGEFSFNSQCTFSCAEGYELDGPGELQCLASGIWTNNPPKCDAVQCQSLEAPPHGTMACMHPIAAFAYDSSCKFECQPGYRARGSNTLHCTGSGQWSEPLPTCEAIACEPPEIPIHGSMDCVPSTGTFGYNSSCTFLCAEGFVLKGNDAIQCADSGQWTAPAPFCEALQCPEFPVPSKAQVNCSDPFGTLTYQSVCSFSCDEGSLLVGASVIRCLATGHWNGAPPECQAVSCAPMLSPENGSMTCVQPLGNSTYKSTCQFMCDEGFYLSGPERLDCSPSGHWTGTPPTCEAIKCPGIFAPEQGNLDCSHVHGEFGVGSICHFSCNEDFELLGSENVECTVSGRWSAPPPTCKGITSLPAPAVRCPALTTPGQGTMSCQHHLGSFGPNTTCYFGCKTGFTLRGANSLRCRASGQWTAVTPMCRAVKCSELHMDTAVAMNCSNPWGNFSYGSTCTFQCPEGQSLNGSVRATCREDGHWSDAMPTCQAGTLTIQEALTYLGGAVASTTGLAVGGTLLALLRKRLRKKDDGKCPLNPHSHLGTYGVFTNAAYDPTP
Protocol: Flow cytometry was used to characterize the ability of GSnP-6 to block binding of selectin-IgG chimeras to murine and human leukocytes. Recombinant mouse P- or L-selectin Fc chimera (2 μg/mL) was incubated with murine neutrophils and GSnP-6 (0-30 μM). Likewise, recombinant human P-selectin or L-selectin Fc chimera were incubated with human peripheral blood neutrophils and monocytes, as well as the human U937 cell line in the presence of GSnP-6 (0-30 μM). Binding of selectin-IgG chimeras was detected with PE-conjugated anti-IgG antibody, quantified as mean fluorescent intensity, and plotted as percent inhibition. Specificity was confirmed with selectin-specific blocking antibodies.

Q: Which results are given for COc1ccc2c(CC(=O)NCCCC[C@H](N)C(=O)N[C@@H](CCC(=O)O)C(=O)N[C@@H](Cc3ccc(CS(=O)(=O)O)cc3)C(=O)N[C@@H](CCC(=O)O)C(=O)N[C@@H](Cc3ccc(CS(=O)(=O)O)cc3)C(=O)N[C@@H](CC(C)C)C(=O)N[C@@H](CC(=O)O)C(=O)N[C@@H](Cc3ccc(CS(=O)(=O)O)cc3)C(=O)N[C@@H](CC(=O)O)C(=O)N[C@@H](Cc3ccccc3)C(=O)N[C@@H](CC(C)C)C(=O)N3CCC[C@H]3C(=O)N[C@@H](CCC(=O)O)C(=O)N[C@H](C(=O)N[C@@H](CCC(=O)O)C(=O)N3CCC[C@H]3C(=O)N[C@@H](CC(C)C)C(=O)O)[C@@H](C)O[C@H]3O[C@H](CO[C@@H]4O[C@H](CO)[C@@H](O[C@@H]5O[C@H](CO)[C@H](O)[C@H](O[C@]6(C(=O)O)C[C@H](O)[C@@H](NC(C)=O)[C@H]([C@H](O)[C@H](O)CO)O6)[C@H]5O)[C@H](O[C@@H]5O[C@@H](C)[C@@H](O)[C@@H](O)[C@@H]5O)[C@H]4NC(C)=O)[C@H](O)[C@H](O[C@@H]4O[C@H](CO)[C@H](O)[C@H](O)[C@H]4O)[C@H]3NC(C)=O)cc(=O)oc2c1 [GSnP-6] (H-K(Mca)E[Phe(4-CH2SO3H)]E[Phe(4-CH2SO3H)]LD[Phe(4-CH2SO3H)]DFLPET(X1)EPL-OH)?
A: koff (human P-selectin; Biacore observed rate constant): 0.0069 s⁻¹; kon (human P-selectin; Biacore observed rate constant): 310000 M⁻¹ s⁻¹; Kd (human P-selectin; biotinylated GS(n)P-6 captured on streptavidin chip, P-sel-Ig 2.5 to 60 μg/mL, read-out: Dissociation constant (Kd) to human P-selectin): 0.022 µM; apparent affinity to E-selectin (E-selectin (E-sel-Ig)): even lower apparent affinity; IC50 [1]: ~15 µM
